Laboratory results reported in publication PMC6735221, “A phase Ib dose-finding, pharmacokinetic study of the focal adhesion kinase inhibitor GSK2256098 and trametinib in patients with advanced solid tumours” (British Journal of Cancer, 2019).
Read-outs that look alike come from different tables or passages of the source.

Legend:
[1] = design: method as in PMID 22805291; conditions: Trametinib 2.0 mg monotherapy (n = 13), plasma; cited from earlier work
[2] = human, in vivo
Protocol: (§2) AEs were assessed throughout the study using the National Cancer Institute Common Terminology Criteria for Adverse Events v4.0 guidelines.[13]
(§3) Haematology and clinical chemistry laboratory tests were performed at baseline, Days 1, 8, 15, 22, 29, and every 4 weeks thereafter. Electrocardiograms were performed at baseline, Days 1, 15, 22, and then every 8 weeks from Day 1.

[3] = human, in vivo; remark: listed apart in the source
Protocol: Blood samples for pharmacokinetic analysis were collected prior to morning dosing of GSK2256098 on Day 15, and at 1, 1.5, 2, 4, 6, 8 h after the morning dose of GSK2256098. Trametinib was administered immediately after the 1.5-hour pharmacokinetic sample was collected.
For PK analysis of trametinib, blood samples were taken via an indwelling cannula (or by direct venepuncture), collected into a di-potassium ethylenediaminetetraacetic acid (K2-EDTA) tube and immediately placed on water ice. Blood samples stored on wet ice were centrifuged within 1 h of collection at approximately 1500 g for 10 min at 4 °C. Supernatant plasma was transferred to a 3.6 mL Nunc tube and stored at 20 °C before shipment. Samples were shipped frozen on dry ice at agreed timepoints throughout the study to GSK Pharmaceuticals, Upper Merion, PA, USA, for analysis.
Plasma samples were analysed for trametinib using the validated analytical method based on liquid-liquid extraction, followed by high-performance liquid chromatography mass spectrometry (HPLC-MS/MS) analysis using a TurboIonSpray interface and multiple reaction monitoring. The lower limit of quantification (LLQ) for trametinib was 0.25 ng/mL using a 50-mL aliquot of human plasma with a higher limit of quantification (HLQ) of 250 ng/mL. Blood samples were analysed for GSK2256098 using a validated analytical method based on acetonitrile extraction from dried blood spots on the Whatman FTA DBS card, followed by HPLC/MS/MS analysis using a TurboIonSpray interface and multiple reaction monitoring. The LLQ for GSK2256098 was 10 ng/mL using a 3-mm diameter.
GSK2256098 whole-blood and dry blood spot concentration-time data as well as trametinib plasma concentration-time data were analysed by standard noncompartmental methods using Phoenix WinNonlin version 6.3. Calculations of all Pharmacokinetic parameters were based on doses of GSK2256098 and trametinib administered and actual sampling times from the respective dosing.

[4] = system: Merlin-negative (encoded by NF-2) mesothelioma cells; design: method as in doi:10.1016/S0959-8049(12)72185-8; conditions: preclinical studies; cited from earlier work
[5] = Adverse events (CTCAE v4.0) in patients; conditions: diarrhoea, lower respiratory tract infection, nausea, vomiting
Protocol: as §2, §3

mesothelioma = system: mesothelioma; design: method as in PMID 27733373; conditions: GSK2256098 monotherapy, phase I; cited from earlier work
[6] = GSK2256098 pharmacokinetics, whole blood, Day 15; assay type: in vivo, human; conditions: for Cmax: read-out: Cmax, Geometric mean (%CV); for Tmax: read-out: tmax, Median (range)
Protocol: (§1) Approximately 15 μL blood was then transferred from the “end-to-end” EDTA capillary tube onto the Whatman FTA DBS card.

[7] = GSK2256098 pharmacokinetics, dry blood spot, Day 15; assay type: in vivo; conditions: human, oral; for Cmax: read-out: Cmax, Geometric mean (%CV); for Tmax: read-out: tmax, Median (range)
Protocol: as §1

[8] = system: human carboxylesterases (eg, hCES1b, hCES1c, and hCES2); design: method as in GSK data on file; conditions: in vitro investigation; ref GSK data on file; cited from earlier work
[9] = human, oral, GSK2256098 250 mg (n = 10) with trametinib, whole blood, Day 15
[10] = human, oral, GSK2256098 500 mg (n = 21) with trametinib, whole blood, Day 15
[11] = GSK2256098 250 mg (n = 6) with trametinib
[12] = GSK2256098 500 mg (n = 10) with trametinib

With CC(=O)Nc1cccc(-n2c(=O)n(C3CC3)c(=O)c3c(Nc4ccc(I)cc4F)n(C)c(=O)c(C)c32)c1 [trametinib] as the molecule, how does the “Cmax, Geometric mean (%CV)” value [1] read?
Its value is 22.2 (28) ng/mL.

And the “tmax, Median (range)” value [1]?
Its value is 1.75 (1.0–3.0) h.

What about the MTD in combination (high GSK2256098/low trametinib MTD, trametinib part) of the same molecule?
Its MTD in combination is 0.375 mg QD.

And the MTD in combination (low GSK2256098/high trametinib MTD, trametinib part)?
The MTD in combination was 0.5 mg QD.

And the “subjects with an SAE that could be attributed to trametinib” value [2]?
Its value is 15%.

And the “Trametinib exposure (Cmax and AUC) with GSK2256098 versus trametinib monotherapy” value [3]?
Its value is 2- to 4 fold.

And the “median time to Cmax (tmax)” value [3]?
Its value is 1.5 to 2.5 h.

What about the “tmax of trametinib with GSK2256098 co-administration” value [3] of the same molecule?
The value was “slightly delayed”.

Which “activity in vitro in Merlin-negative versus Merlin-positive mesothelioma cells” value [4] does the source give for CONC(=O)c1ccccc1Nc1cc(Nc2cc(C)nn2C(C)C)ncc1Cl [GSK2256098] here?
The value was “at least 20 times”.

And the “relation of the most common serious AEs to GSK2256098” value [5]?
The value was “none of these were considered related to GSK2256098”.

What about the “PFS of Merlin-negative versus Merlin-positive mesothelioma patients” value (mesothelioma) of the same molecule?
The value was “nearly twice”.

What about the MTD in combination (high GSK2256098/low trametinib MTD, GSK2256098 part) of the same molecule?
Its MTD in combination is 500 mg BID.

What about the MTD in combination (low GSK2256098/high trametinib MTD, GSK2256098 part) of the same molecule?
Its MTD in combination is 250 mg BID.

And the AUC ([6]; human, oral, GSK2256098 250 mg (n = 10) with trametinib, whole blood, Day 15, read-out: AUC(0–τ), Geometric mean (%CV))?
The AUC was 5470 ng·h/mL.

And the Cmax [6, 9]?
Its Cmax is 1400 ng/mL.

And the Tmax [6, 9]?
Its Tmax is 2 h.

And the Cmax [6, 10]?
Its Cmax is 2450 ng/mL.

And the Tmax [6, 10]?
Its Tmax is 2 h.

And the “median time to Cmax (tmax)” value ([6]; post-dose, across dose groups, with trametinib)?
The value was roughly 2 h.

What about the “exposure of GSK2256098 when co-administered with trametinib” value ([6]; versus previous monotherapy study) of the same molecule?
The value was “not altered”.

What about the AUC ([7]; GSK2256098 250 mg (n = 6) with trametinib, read-out: AUC(0–τ), Geometric mean (%CV)) of the same molecule?
Its AUC is 4980 ng·h/mL.

And the Cmax [7, 11]?
Its Cmax is 1230 ng/mL.

And the Tmax [7, 11]?
Its Tmax is 2.8 h.

What about the Cmax [7, 12] of the same molecule?
The Cmax was 2830 ng/mL.

And the Tmax [7, 12]?
The Tmax was 2 h.

What about the “effect on deacetylation of trametinib by human carboxylesterases” value [8] of the same molecule?
The value was “inhibits deacetylation of trametinib”.
